Data on 21 compounds can be found in patent US20110230476A1, “PI3 KINASE INHIBITORS AND USES THEREOF” (AVILA THERAPEUTICS, INC., priority 2009, published 2011).

Assay [1] concerns the target T1, PI3Kα (p110α/p85α) (Homo sapiens, UniProt P42336).
T1 construct: purchased BPS Bioscience (San Diego, Calif.) or Millipore (Billerica, Mass.)
In words: HTRF assay, potency against active PI3Kα. Type of assay: biochemical. As to conditions: HTRF; [ATP]=50 μM, [di-C8-PIP2]=10 μM; 30 min pre-incubation; read-out: PI3Kα Inhibition. Put shortly:
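IC50 came from a variable-slope fit of % inhibition, calculated from the HTRF emission ratio relative to wells with and without enzyme. Reactions with the active enzyme complex ran 30-60 minutes at 25 °C after ATP addition before stop and detection reagents.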
For orientation: Time-resolved FRET reads energy transfer from a long-lived donor to a nearby acceptor.

The target in assay [2] is T2, PI3Kγ (p120γ) (Homo sapiens, UniProt P48736).
T2 construct: purchased BPS Bioscience (San Diego, Calif.) or Millipore (Billerica, Mass.)
T2 sequence (P48736 whole entry): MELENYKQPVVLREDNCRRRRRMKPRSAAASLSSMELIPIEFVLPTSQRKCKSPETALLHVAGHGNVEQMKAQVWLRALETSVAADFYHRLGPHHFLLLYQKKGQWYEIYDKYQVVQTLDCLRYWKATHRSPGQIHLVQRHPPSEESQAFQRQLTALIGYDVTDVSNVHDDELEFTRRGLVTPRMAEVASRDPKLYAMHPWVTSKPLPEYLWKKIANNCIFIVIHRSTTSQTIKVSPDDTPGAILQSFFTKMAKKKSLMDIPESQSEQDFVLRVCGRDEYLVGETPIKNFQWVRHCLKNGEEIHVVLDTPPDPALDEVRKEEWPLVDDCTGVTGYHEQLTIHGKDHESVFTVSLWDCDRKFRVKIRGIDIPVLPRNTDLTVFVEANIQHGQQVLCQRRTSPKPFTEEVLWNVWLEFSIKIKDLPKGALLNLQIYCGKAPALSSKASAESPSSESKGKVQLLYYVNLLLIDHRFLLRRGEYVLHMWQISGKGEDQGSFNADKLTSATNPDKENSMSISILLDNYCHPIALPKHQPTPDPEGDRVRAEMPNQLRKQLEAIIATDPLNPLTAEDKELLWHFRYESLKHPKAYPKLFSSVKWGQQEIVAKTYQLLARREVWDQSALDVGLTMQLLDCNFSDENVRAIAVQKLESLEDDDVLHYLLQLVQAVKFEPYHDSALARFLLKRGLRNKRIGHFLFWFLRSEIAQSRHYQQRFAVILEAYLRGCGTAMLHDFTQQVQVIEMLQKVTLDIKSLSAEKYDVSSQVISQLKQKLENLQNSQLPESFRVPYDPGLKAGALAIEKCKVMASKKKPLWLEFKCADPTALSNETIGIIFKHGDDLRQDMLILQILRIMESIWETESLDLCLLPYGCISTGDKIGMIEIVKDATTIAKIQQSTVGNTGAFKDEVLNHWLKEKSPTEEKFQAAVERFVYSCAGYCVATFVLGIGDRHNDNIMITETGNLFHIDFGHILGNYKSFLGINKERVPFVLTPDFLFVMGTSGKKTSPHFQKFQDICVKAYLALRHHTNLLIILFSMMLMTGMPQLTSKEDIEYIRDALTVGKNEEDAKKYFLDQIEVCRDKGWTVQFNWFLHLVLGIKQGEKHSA
In words: HTRF assay, potency against active PI3Kγ. As to conditions: [ATP]=50 μM, [di-C8-PIP2]=10 μM, 30 min pre-incubation, read-out: PI3Kγ Inhibition. Type of assay: biochemical. From the text:
Homogeneous Time Resolved Fluorescence (HTRF) Assay Protocol for Potency Assessment Against the Active Forms of PI3Kα, PI3Kβ, and PI3Kγ
The protocol below describes an end-point, competition-binding HTRF assay used to measure inherent potency of test compounds against active PI3Kα (p110α/p85α), PI3Kβ (p110β/p85α), and PI3Kγ (p120γ) enzymes. The mechanics of the assay platform are best described by the vendor (Millipore, Billerica, Mass.) on their website at the following URL: www.millipore.com/coa/tech1/74jt4z.
Briefly, Stop solution (Stop A, #33-007 and Stop B, #33-009; 3:1 ratio) and Detection Mix (from DMC, #33-015 with DMA, #33-011 and DMB, #33-013; 18:1:1 ratio) were prepared as recommended by the manufacturer about 2 hrs prior to use. Additionally, 1× reaction buffer (from 4× buffer stock# 33-003), 1.4× stocks of PI3Kα, PI3Kβ, and PI3Kγ enzymes from BPS Bioscience (San Diego, Calif.) or Millipore (Billerica, Mass.) with di-C8-PIP2 lipid substrate (#33-005), and a 4×ATP solution (#A7699 Sigma/Aldrich; St. Louis, Mo.) were prepared in 1× reaction buffer. 15 μL of PI3K enzymes and lipid substrate mix were pre-incubated in a Corning (#3573) 384-well, black, non-treated microtiter plate (Corning, N.Y.) for 30 min at 25° C. with a 0.5 μL volume of 50% DMSO and serially diluted compounds prepared in 50% DMSO. Lipid kinase reactions were started with the addition of 5 μL of ATP solution, mixed for 15 sec on a rotary plate shaker and incubated for 30-60 minutes at 25° C. Next, reactions were stopped with a 5 μL addition of Stop solution immediately followed by a 5 μL volume of Detection Mix. Stopped reactions were equilibrated for 1 and 18 hrs at room temperature and read in a Synergy^4 plate reader from BioTek (Winooski, Vt.) at λex330-80/λem620-35 and λem665-7.5. At the conclusion of each assay, the HTRF ratio from fluorescence emission values for each well was calculated and % Inhibition determined from averaged controls wells (+/−PI3K enzyme). % Inhibition values for each compound were then plotted against inhibitor concentration to estimate IC50 from log [Inhibitor] vs Response, Variable Slope model in GraphPad Prism from GraphPad Software (San Diego, Calif.).
[Reagent] used in optimized protocol: • [p110α/p85α]=0.5-1.5 nM, [ATP]=50 μM, [di-C8—PIP2]=10 μM • [p110β/p85α]=0.75 nM, [ATP]=50 μM, [di-C8—PIP2]=10 μM • [p120γ]=2-2.5 nM, [ATP]=50 μM, [di-C8—PIP2]=10 μM • (ATP KMapp for both enzymes was estimated to be 40-70 μM)

T1 sequence (P42336 whole entry): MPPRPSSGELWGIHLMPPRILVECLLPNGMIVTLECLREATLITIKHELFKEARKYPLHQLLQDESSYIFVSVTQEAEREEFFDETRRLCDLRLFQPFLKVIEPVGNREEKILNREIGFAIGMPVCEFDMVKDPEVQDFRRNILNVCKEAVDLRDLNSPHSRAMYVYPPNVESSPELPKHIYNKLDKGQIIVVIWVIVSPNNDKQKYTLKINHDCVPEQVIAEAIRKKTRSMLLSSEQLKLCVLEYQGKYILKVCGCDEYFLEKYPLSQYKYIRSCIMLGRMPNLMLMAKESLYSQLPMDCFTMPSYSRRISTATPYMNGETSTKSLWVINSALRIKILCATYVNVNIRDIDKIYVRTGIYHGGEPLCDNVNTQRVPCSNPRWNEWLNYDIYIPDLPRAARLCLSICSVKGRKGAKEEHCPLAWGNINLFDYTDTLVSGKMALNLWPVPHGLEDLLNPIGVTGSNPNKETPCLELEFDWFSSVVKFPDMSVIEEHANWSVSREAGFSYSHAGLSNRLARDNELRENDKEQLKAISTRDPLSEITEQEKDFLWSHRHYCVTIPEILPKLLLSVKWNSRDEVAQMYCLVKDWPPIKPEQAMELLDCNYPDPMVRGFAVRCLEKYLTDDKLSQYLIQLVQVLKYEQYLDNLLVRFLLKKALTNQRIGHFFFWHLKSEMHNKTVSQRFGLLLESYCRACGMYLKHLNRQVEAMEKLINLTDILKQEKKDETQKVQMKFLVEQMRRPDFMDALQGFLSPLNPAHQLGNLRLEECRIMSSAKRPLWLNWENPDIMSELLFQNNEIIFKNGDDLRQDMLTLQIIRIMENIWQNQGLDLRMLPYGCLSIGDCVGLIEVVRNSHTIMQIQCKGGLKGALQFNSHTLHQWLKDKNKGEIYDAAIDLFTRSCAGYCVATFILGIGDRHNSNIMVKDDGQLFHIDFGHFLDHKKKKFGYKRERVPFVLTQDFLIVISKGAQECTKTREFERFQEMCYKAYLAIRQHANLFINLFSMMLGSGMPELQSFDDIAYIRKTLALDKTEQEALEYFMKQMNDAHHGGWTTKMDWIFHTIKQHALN
T1 sequence (P27986 whole entry partner): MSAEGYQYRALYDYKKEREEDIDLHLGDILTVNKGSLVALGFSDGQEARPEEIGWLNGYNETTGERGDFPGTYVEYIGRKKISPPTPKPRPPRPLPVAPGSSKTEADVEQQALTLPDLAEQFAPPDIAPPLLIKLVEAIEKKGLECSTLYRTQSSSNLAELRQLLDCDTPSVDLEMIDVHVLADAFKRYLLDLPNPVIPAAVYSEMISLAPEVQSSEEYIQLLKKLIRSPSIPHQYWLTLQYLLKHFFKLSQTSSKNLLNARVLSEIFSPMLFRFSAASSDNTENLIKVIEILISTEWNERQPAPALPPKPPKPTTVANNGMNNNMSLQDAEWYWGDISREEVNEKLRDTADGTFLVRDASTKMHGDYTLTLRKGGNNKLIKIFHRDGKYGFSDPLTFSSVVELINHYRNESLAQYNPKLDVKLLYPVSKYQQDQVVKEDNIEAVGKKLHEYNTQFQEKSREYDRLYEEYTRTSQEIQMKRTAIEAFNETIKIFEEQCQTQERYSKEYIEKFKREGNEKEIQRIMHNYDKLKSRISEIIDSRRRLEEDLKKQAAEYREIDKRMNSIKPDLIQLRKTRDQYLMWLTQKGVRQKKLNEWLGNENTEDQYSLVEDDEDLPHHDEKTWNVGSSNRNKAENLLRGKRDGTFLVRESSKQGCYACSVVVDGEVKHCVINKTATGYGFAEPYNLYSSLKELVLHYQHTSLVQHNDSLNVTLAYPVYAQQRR

On to `C=CC(=O)N1CCN(C(=O)C2CCN(Cc3cc4nc(-c5cccc(O)c5)nc(N5CCOCC5)c4s3)CC2)CC1` [II-a-34, (1-((2-(3-hydroxyphenyl)-4-morpholinothieno[3,2-d]pyrimidin-6-yl)methyl)piperidin-4-yl)(4-acryloyl-piperazin-1-yl)methanone], for which the IC50 is 100 to 1000 nM in assay [1] and more than 1000 nM in assay [2].
Regarding `C=CC(=O)N1CCN(C(=O)c2ccc(-c3cc4nc(-c5cccc6[nH]ncc56)nc(N5CCOCC5)c4s3)cc2)CC1` [II-a-57, 1-(4-(4-(2-(1H-indazol-4-yl)-4-morpholinothieno[3,2-d]pyrimidin-6-yl)benzoyl)piperazin-1-yl)prop-2-en-1-one], the IC50 in assay [1] is 100 to 1000 nM; in assay [2], more than 1000 nM.
For `C=CC(=O)N1CCN(Cc2cc3nc(-c4ccccc4)nc(N4CCOCC4)c3s2)CC1` [II-a-17, 1-(4-((4-morpholino-2-phenylthieno[3,2-d]pyrimidin-6-yl)methyl)piperazin-1-yl)prop-2-en-1-one], the IC50 in assay [1] and in assay [2] was more than 1000 nM each time.
`C=CC(=O)NCCN1CCN(Cc2cc3nc(-c4cccc5[nH]ncc45)nc(N4CCOCC4)c3s2)CC1` [II-a-59]: the IC50 in assay [1] and in assay [2] was more than 1000 nM throughout.
Consider `C=CC(=O)n1cc(-c2ccc3c(c2)N(c2nc4c(s2)C(=O)NC(C)(C)C4)CCO3)cn1` [VI-1, 2-(6-(1-acryloyl-1H-pyrazol-4-yl)-2H-benzo[b][1,4]oxazin-4(3H)-yl)-6,6-dimethyl-6,7-dihydrothiazolo[5,4-c]pyridin-4(5H)-one], for which the IC50 was more than 1000 nM in assay [1] and 100 to 1000 nM in assay [2].
In the same order, the values of `C=CC(=O)N1Cc2ccc(-c3cc4nc(-c5cccc(O)c5)nc(N5CCOCC5)c4s3)cc2C1` [II-a-27, 1-(5-(2-(3-hydroxyphenyl)-4-morpholinothieno[3,2-d]pyrimidin-6-yl)isoindolin-2-yl)prop-2-en-1-one] are 100 to 1000 nM and more than 1000 nM.
For `C=CC(=O)N1CCN(c2ccc(-c3cc4nc(-c5cccc(O)c5)nc(N5CCOCC5)c4s3)cc2)CC1` [II-a-58, 1-(4-(4-(2-(3-hydroxyphenyl)-4-morpholinothieno[3,2-d]pyrimidin-6-yl)phenyl)piperazin-1-yl)prop-2-en-1-one], the figures for the IC50 in assay [1] and in assay [2] were 10 to 100 nM and more than 1000 nM, respectively.
In the same order, the values of `C=CC(=O)N1CCN(C(=O)C2CCN(Cc3cc4nc(-c5cccc6[nH]ncc56)nc(N5CCOCC5)c4s3)CC2)CC1` [II-a-31, 1-(4-(1-((2-(1H-indazol-4-yl)-4-morpholinothieno[3,2-d]pyrimidin-6-yl)methyl)piperidine-4-carbonyl)piperazin-1-yl)prop-2-en-1-one] are 100 to 1000 nM and more than 1000 nM.
On to `CC(C)=CC(=O)CCC(=O)NCC(=O)N1CCN(Cc2cc3nc(-c4cccc5[nH]ncc45)nc(N4CCOCC4)c3s2)CC1` [II-a-41, N-(2-(4-((2-(1H-indazol-4-yl)-4-morpholinothieno[3,2-d]pyrimidin-6-yl)methyl)piperazin-1-yl)-2-oxoethyl)-6-methyl-4-oxohept-5-enamide], for which the IC50 in assay [1] and in assay [2] was more than 1000 nM throughout.
In the case of `CCCC(=O)CCC(=O)NCC(=O)N1CCN(Cc2cc3nc(-c4cccc5[nH]ncc45)nc(N4CCOCC4)c3s2)CC1` [II^R-a-16], the IC50 in assay [1] was 100 to 1000 nM; in assay [2] it was more than 1000 nM.
In the same order, the values of `C=CC(=O)NCC(=O)NCC(=O)N1CCN(Cc2cc3nc(-c4cccc5[nH]ncc45)nc(N4CCOCC4)c3s2)CC1` [II-a-32, N-(2-(2-(4-((2-(1H-indazol-4-yl)-4-morpholinothieno[3,2-d]pyrimidin-6-yl)methyl)piperazin-1-yl)-2-oxoethylamino)-2-oxoethyl)acrylamide] are 100 to 1000 nM and more than 1000 nM.
In the same order, the values of `CC(C)(C)C#CC(=O)CC[C@H](NC(=O)OC(C)(C)C)C(=O)N1CCN(Cc2cc3nc(-c4cccc5[nH]ncc45)nc(N4CCOCC4)c3s2)CC1` [II-a-51, (S)-tert-butyl 1-(4-((2-(1H-indazol-4-yl)-4-morpholinothieno[3,2-d]pyrimidin-6-yl)methyl)piperazin-1-yl)-8,8-dimethyl-1,5-dioxonon-6-yn-2-ylcarbamate] are 100 to 1000 nM and more than 1000 nM.
In the same order, the values of `C=CC(=O)N(C)Cc1cc2nc(-c3cccc(O)c3)nc(N3CCOCC3)c2s1` [II-a-39, N-((2-(3-hydroxyphenyl)-4-morpholinothieno[3,2-d]pyrimidin-6-yl)methyl)-N-methylacrylamide] are 10 to 100 nM and more than 1000 nM.
Consider `C=CC(=O)NCc1ccc(C(=O)N2CCN(Cc3cc4nc(-c5cccc6[nH]ncc56)nc(N5CCOCC5)c4s3)CC2)cc1` [II-a-21, N-(4-(4-((2-(1H-indazol-4-yl)-4-morpholinothieno[3,2-d]pyrimidin-6-yl)methyl)piperazine-1-carbonyl)benzyl)acrylamide], for which the IC50 in assay [1] and in assay [2] was more than 1000 nM each time.
Take `C=CC(=O)NCCS(=O)(=O)N1CCN(Cc2cc3nc(-c4cccc5[nH]ncc45)nc(N4CCOCC4)c3s2)CC1` [II-a-13, N-(2-(4-((2-(1H-indazol-4-yl)-4-morpholinothieno[3,2-d]pyrimidin-6-yl)methyl)piperazin-1-ylsulfonyl)ethyl)acrylamide]: the IC50 in assay [1] was 10 to 100 nM; in assay [2], more than 1000 nM.
With `CC(C)(C)/C=C\C(=O)CC[C@H](NC(=O)OC(C)(C)C)C(=O)N1CCN(Cc2cc3nc(-c4cccc5[nH]ncc45)nc(N4CCOCC4)c3s2)CC1` [II-a-52, (S)-tert-butyl 1-(4-((2-(1H-indazol-4-yl)-4-morpholinothieno[3,2-d]pyrimidin-6-yl)methyl)piperazin-1-yl)-8,8-dimethyl-1,5-dioxonon-6-en-2-ylcarbamate], the IC50 in assay [1] is 100 to 1000 nM; in assay [2] it was more than 1000 nM.
In the same order, the values of `C=CC(=O)N(C)CC(=O)N1CCN(Cc2cc3nc(-c4cccc5[nH]ncc45)nc(N4CCOCC4)c3s2)CC1` [II-a-44, N-(2-(4-((2-(1H-indazol-4-yl)-4-morpholinothieno[3,2-d]pyrimidin-6-yl)methyl)piperazin-1-yl)-2-oxoethyl)-N-methylacrylamide] are more than 1000 nM and more than 1000 nM.
In the same order, the values of `O=C(/C=C/CNC(=O)CCCC(=O)NCCCOCCOCCOCCCNC(=O)CCCC[C@@H]1SC[C@@H]2NC(=O)N[C@@H]21)CCC(=O)N1CCN(Cc2cc3nc(-c4cccc5[nH]ncc45)nc(N4CCOCC4)c3s2)CC1` [XIV-a-2, N1-((E)-7-(4-((2-(1H-indazol-4-yl)-4-morpholinothieno[3,2-d]pyrimidin-6-yl)methyl)piperazin-1-yl)-4,7-dioxohept-2-enyl)-N5-(15-oxo-19-((3aS,4S,6aR)-2-oxohexahydro-1H-thieno[3,4-d]imidazol-4-yl)-4,7,10-trioxa-14-azanonadecyl)glutaramide] are more than 1000 nM and more than 1000 nM.
In the case of `C/C=C/C(=O)CCC(=O)N1CCN(c2ccnc3ccc(/C=C4\SC(=O)NC4=O)cc23)CC1` [V-2, (Z)-5-((4-(4-((E)-4-oxohept-5-enoyl)piperazin-1-yl)quinolin-6-yl)methylene)thiazolidine-2,4-dione], the IC50 in assay [1] was 100 to 1000 nM; in assay [2], more than 1000 nM.
In the same order, the values of `C=CS(=O)(=O)N1CCN(Cc2cc3nc(-c4cccc5[nH]ncc45)nc(N4CCOCC4)c3s2)CC1` [II-a-1] are 100 to 1000 nM and 100 to 1000 nM.
As for `C/C=C/C(=O)CCC(=O)N(C)Cc1cc2nc(-c3cccc(O)c3)nc(N3CCOCC3)c2s1` [II-a-40, (E)-N-((2-(3-hydroxyphenyl)-4-morpholinothieno[3,2-d]pyrimidin-6-yl)methyl)-N-methyl-4-oxohept-5-enamide], the IC50 in assay [1] was in the range of 10 to 100 nM; in assay [2], 100 to 1000 nM.
